The source of these data is patent US9695200B2, “Heterocyclic ITK inhibitors for treating inflammation and cancer” (Confluence Life Sciences, Inc., priority 2015, dated 2017).

Where two headings read alike, the source gives them in different places.

Assay [1] deals with phospho-PLCγ1 in Jurkat cells. The assay is described as follows: ITK target modulation PLC-γ assay (phospho-PLCγ1, αCD3-stimulated Jurkat cells). In kind it is cell-based, human. The settings on record: 1 hour compound incubation, αCD3 Dynabeads stimulation 8 minutes, MSD phospho-PLCγ1, read-out: PLC-γ Inhibition IC50.
Assay [2] addresses ITK (Homo sapiens (Human), UniProt Q08881). Put plainly: ITK inhibitor binding potency (LanthaScreen competitive binding assay). The settings on record: TR-FRET tracer-236 displacement, 10 nM ITK; pre-incubation condition not given; read-out: ITK Inhibition IC50. An excerpt:
The ability of candidate compounds to interact with ITK is quantitated by a competitive binding assay using the LanthaScreen technology developed by Life Technologies. This assay is based on the binding of a proprietary, Alexa Fluor® 647-labeled, ATP-competitive kinase inhibitor (kinase tracer-236) to the ITK expression construct in the presence of a Europium-conjugated antibody, resulting in a FRET (fluorescence resonance energy transfer) signal. Displacement of the kinase tracer by compound results in a lower emission ratio upon excitation of the Europium chelate. Candidate compounds are designed as potential irreversible inhibitors of ITK, capable of ligating to an active site cysteine residue resulting in time dependent covalent binding. The time dependent nature of irreversible inhibition is investigated by performing the binding assay with and without a pre-incubation of compound and ITK. […] The inhibitory potency of candidate compounds is measured in 20 mM HEPES pH 7.5, 10 mM MgCl2, 0.01% BSA, 0.0005% Tween-20, and 2% DMSO in the presence of 10 nM ITK, 2 nM Eu-anti-GST antibody, and 50 nM kinase tracer-236 using a 384-well plate format. Background signal is defined in the absence of ITK and uninhibited signal is defined in the presence of vehicle (2% DMSO) alone. Compounds were evaluated in an 11 point dose-response ranging from 20 uM to 0.34 nM. The binding assays are performed under two preincubation conditions to evaluate time dependence of inhibition. For the pre-incubation assay, ITK and Eu-anti-GST antibody are pre-incubated with compound or vehicle for two hours prior to the addition of kinase tracer. The non-preincubated assay is run under conditions where ITK and Eu-anti-GST antibody are added to a mixture of compound and kinase tracer. IC50 values of compounds are determined using a 4 parameter logistical fit of emission ratio as a function of the concentration of compound.

Chain of ITK (Q08881 whole entry): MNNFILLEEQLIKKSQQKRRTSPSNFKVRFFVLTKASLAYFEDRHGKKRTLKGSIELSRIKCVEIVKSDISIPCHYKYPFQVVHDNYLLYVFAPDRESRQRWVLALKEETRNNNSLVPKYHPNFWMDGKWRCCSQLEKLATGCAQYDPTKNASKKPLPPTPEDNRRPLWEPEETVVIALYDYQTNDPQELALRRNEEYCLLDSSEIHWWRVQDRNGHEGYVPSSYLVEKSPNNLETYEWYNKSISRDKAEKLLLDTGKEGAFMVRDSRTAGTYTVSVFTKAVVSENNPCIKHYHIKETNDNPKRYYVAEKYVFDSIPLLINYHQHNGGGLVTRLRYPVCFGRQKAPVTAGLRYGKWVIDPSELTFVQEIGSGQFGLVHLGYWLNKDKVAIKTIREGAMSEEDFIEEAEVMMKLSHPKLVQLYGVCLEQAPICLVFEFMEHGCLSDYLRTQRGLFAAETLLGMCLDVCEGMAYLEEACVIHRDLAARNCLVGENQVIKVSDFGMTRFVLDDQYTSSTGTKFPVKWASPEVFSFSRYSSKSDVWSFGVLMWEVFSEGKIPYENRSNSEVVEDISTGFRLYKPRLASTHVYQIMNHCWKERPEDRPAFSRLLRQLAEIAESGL

For the molecule `C=CC(=O)NC1CN(c2cnc3[nH]cc(-c4ccnc(NC)c4)c3c2)C1` [Example 36, N-(1-(3-(2-(methylamino)pyridin-4-yl)-1H-pyrrolo[2,3-b]pyridin-5-yl)azetidin-3-yl)acrylamide], the IC50 was above 5 µM in assay [1] (Homo sapiens) and at most 1 µM in assay [2].
In the case of `C=CC(=O)Nc1cccc(-c2cnc3[nH]cc(-c4cn(CC5CC5)c(=O)c5ccccc45)c3c2)c1` [Example 86, N-(3-(3-(2-(cyclopropyl-methyl)-1-oxo-1,2-dihydroisoquino-lin-4-yl)-1H-pyrrolo[2,3-b]pyridin-5-yl)phenyl)acryl-amide], the results for the IC50 in assay [1] (Homo sapiens) and in assay [2] were above 5 µM and above 1 µM, respectively.
On to `C=CC(=O)Nc1cc(-c2cnc3[nH]cc(-c4ccnc(OC)c4)c3c2)cc(N2CCOCC2)n1` [Example 41, N-(4-(3-(2-methoxypyridin-4-yl)-1H-pyrrolo[2,3-b]pyridin-5-yl)-6-morpholinopyri-din-2-yl)acrylamide], for which the IC50 in assay [1] (Homo sapiens) is below 1 µM; in assay [2] it was at most 1 µM.
As for `C=CC(=O)N[C@H]1CCCN(c2cnc3[nH]cc(-c4ccncc4)c3c2)C1` [Example 15, (S)-N-(1-(3-(pyridin-4-yl)-1H-pyrrolo[2,3-b]pyridin-5-yl)piperidin-3-yl)acrylamide], the IC50 is above 5 µM in assay [1] (Homo sapiens) and at most 1 µM in assay [2].
The like results for `COc1cc(-c2c[nH]c3ncc(-c4cccc(NC(=O)/C=C/CN5CCOCC5)c4)cc23)ccn1` [Example 38, (E)-N-(3-(3-(2-methoxypyridin-4-yl)-1H-pyrrolo[2,3-b]pyridin-5-yl)phenyl)-4-morpholinobut-2-enamide] were, in that order, above 5 µM and at most 1 µM.
Take “N-(6-methoxy- 4-(3-(2- methoxypyridin- 4-yl)-1H- pyrrolo[2,3- b]pyridin-5- yl)pyridin-2- yl)methacryl- amide [Example 68]”: the IC50 in assay [1] is above 5 µM; in assay [2], above 1 µM.
In the case of `CN(C)C/C=C/C(=O)Nc1cccc(-c2cnc3[nH]cc(-c4ccc(=O)n(CC5CC5)c4)c3c2)c1` [Example 90, (E)-N-(3-(3-(1-(cyclopropyl-methyl)-6-oxo-1,6-dihydropyridin-3-yl)-1H-pyrrolo[2,3-b]pyridin-5-yl)phenyl)-4-(dimethylamino) but-2-enamide], the results for the IC50 in assay [1] (Homo sapiens) and in assay [2] were above 5 µM and at most 1 µM, respectively.
The like results for `C=CC(=O)N(C)c1cccc(-c2cnc3[nH]cc(-c4ccnc(OC)c4)c3c2)c1` [Example 21, N-(3-(3-(2-methoxypyridin-4-yl)-1H-pyrrolo[2,3-b]pyridin-5-yl)phenyl)-N-methylacrylamide] were, in that order, 1 to 5 µM and at most 1 µM.
The like results for `C=C(C)C(=O)Nc1cccc(-c2cnc3[nH]cc(-c4ccnc(OC)c4)c3c2)c1` [Example 81, N-(3-(3-(2-methoxypyridin-4-yl)-1H-pyrrolo[2,3-b]pyridin-5-yl)phenyl)meth-acrylamide] were, in that order, above 5 µM and above 1 µM.
The like results for `CN(C)C/C=C/C(=O)Nc1cccc(-c2cnc3[nH]cc(-c4ccc(=O)n(C)c4)c3c2)c1` [Example 34, (E)-4-(dimethylamino)-N-(3-(3-(1-methyl-6-oxo-1,6-dihydropyridin-3-yl)-1H-pyrrolo[2,3-b]pyridin-5-yl)phenyl)but-2-enamide] were, in that order, above 5 µM and above 1 µM.
`C=CC(=O)NC1CN(c2cnc3[nH]cc(-c4ccccc4)c3c2)C1` [Example 1, N-(1-(3-Phenyl-1H-pyrrolo[2,3-b]pyridin-5-yl)azetidin-3-yl)acrylamide]: the IC50 in assay [1] (Homo sapiens) is above 5 µM; in assay [2], at most 1 µM.
The like results for `C=CC(=O)Nc1cc(-c2cnc3[nH]cc(-c4ccnc(OC)c4)c3c2)cc(OC(C)C)n1` [Example 45, N-(6-isopropoxy-4-(3-(2-methoxypyridin-4-yl)-1H-pyrrolo[2,3-b]pyridin-5-yl)pyridin-2-yl)acrylamide] were, in that order, 1 to 5 µM and at most 1 µM.
The like results for `C=CC(=O)N[C@H]1CCN(c2cnc3[nH]cc(-c4ccncc4)c3c2)C1` [Example 14, (S)-N-(1-(3-(pyridin-4-yl)-1H-pyrrolo[2,3-b]pyridin-5-yl)pyrrolidin-3-yl)acrylamide] were, in that order, above 5 µM and at most 1 µM.
The like results for `C=CC(=O)NC1CN(c2cnc3[nH]cc(-c4ccnc(C)c4)c3c2)C1` [Example 4, N-(1-(3-(2-Methylpyridin-4-yl)-1H-pyrrolo[2,3-b]pyridin-5-yl)azetidin-3-yl)acrylamide] were, in that order, above 5 µM and at most 1 µM.
For `CN(C)C/C=C/C(=O)Nc1cccc(-c2cnc3[nH]cc(-c4cccnc4)c3c2)c1` [Example 84, (E)-4-(dimethylamino)-N-(3-(3-(pyridin-3-yl)-1H-pyrrolo[2,3-b]pyridin-5-yl)phenyl)but-2-enamide], the IC50 in assay [1] (Homo sapiens) is 1 to 5 µM; in assay [2] it was at most 1 µM.
The like results for `C=CC(=O)Nc1cncc(-c2cnc3[nH]cc(-c4ccnc(C)c4)c3c2)c1` [Example 28, N-(5-(3-(2-methylpyridin-4-yl)-1H-pyrrolo[2,3-b]pyridin-5-yl)pyridin-3-yl)acrylamide] were, in that order, below 1 µM and at most 1 µM.
The like results for `C=CC(=O)Nc1cccc(-c2cnc3[nH]cc(-c4cc(OC)ncn4)c3c2)c1` [Example 39, N-(3-(3-(6-methoxypyrimi-din-4-yl)-1H-pyrrolo[2,3-b]pyridin-5-yl)phenyl)acryl-amide] were, in that order, 1 to 5 µM and at most 1 µM.
The like results for `C=CC(=O)Nc1cc(-c2cnc3[nH]cc(-c4ccnc(OC)c4)c3c2)cc(C(F)(F)F)c1` [Example 11, N-(3-(3-(2-Methoxypyridin-4-yl)-1H-pyrrolo[2,3-b]pyridin-5-yl)-5-(trifluoromethyl)phenyl)acrylamide] were, in that order, below 1 µM and at most 1 µM.
